# Patent publication US20190269666A1, “COMBINATION THERAPY WITH MERESTINIB AND ANTI-PD-L1 OR ANTI-PD-1 INHIBITORS FOR USE IN THE TREATMENT OF CANCER” (Eli Lilly and Company, priority 2016, published 2019)
# Key:
# CT26 cells = experiment: CT26 cell proliferation; format: cell-based; settings: Mus musculus, in vitro
# Method: CT26 CRC tumor cells harbor KRAS activating mutation G12D. […] CT26 cells also express high level of phospho-AXL (p-AXL) by western blot analysis and merestinib is shown to decrease p-AXL in vitro by more than 60% at a concentration of 500 nM in the mouse phospho-RTK array, but show very little effect on CT26 cell proliferation (IC50>20 μM).
# [1] = tested on: CT26 colorectal cancer model; experiment: Study S010516: merestinib and anti-PD-L1 antibody combinations in CT26 syngeneic mouse tumor model; format: in vivo; set-up: key to Mean Tumor Volume: mm³; tumor volume v = l×w²×0.536; settings: for Mean Tumor Volume: in mm³ (unit assumed)
# Method: A syngeneic mouse tumor model is used to evaluate potential combination effect of merestinib and anti-PD-L1 antibody is the CT26 colorectal cancer model using the mouse colorectal cancer line CT26. This experiment is conducted in immune competent mice (Grosso and Jure-Kunkel, Cancer Immunity Vol. 13, p. 5, January 2013; Duraiswamy et al, Cancer Research, Jun. 15, 2013 73; 3591.). Anti-PD-L1 antibody surrogate (178G7, LSN3370181) (Eppihimer et al. Microcirculation 2002:9(2):133) is used in the mouse study.
# Female BALB/c mice (18-20 gm) from Envigo (Harlan Laboratories) are used for this study. Food and water are available ad libitum. Animals are acclimated for one week prior to any experimental manipulation. The study is performed in accordance with AALAC accredited institutional guidelines.
# Merestinib is formulated as a solution in 10% PEG 400 in 90% (20% Captisol in water) once weekly. Anti-PD-L1 antibody (178G7, LSN3370181) is formulated in PBS (phosphate buffered saline).
# CT26 cells (from internal in vivo pharmacology cell culture group lot CT26.WT.3184878) are used for implantation. Approximately 1×10^6 cells in HBSS are implanted subcutaneously into the right hind flank of the animal under anesthesia.
# Study S010516 has six groups: 1) vehicle control (10% PEG 400 in 90% [20% Captisol in water]) dosed orally once daily for 21 days and dosing initiated at Day 6 post-implant of CT26 cells; 2) single agent anti-PD-L1 antibody (178G7, LSN3370181) dosing via IP at 500 μg/animal once weekly for 3 weeks initiated at Day 6 post-implant of CT26 cells; 3) single agent merestinib at 12 mg/kg once daily orally for 21 days and initiated at Day 6 post-implant of CT26 cells; 4) concurrent combination of merestinib (12 mg/kg once daily for 21 days orally) and anti-PD-L1 antibody (500 μg/animal once weekly via IP for 3 weeks) and initiated at Day 6 post-implant of CT26 cells; 5) sequential combination of merestinib (12 mg/kg once daily for 21 days orally and initiated at Day 6 post-implant of CT26 cells) and anti-PD-L1 antibody (500 μg/animal once weekly via IP for 3 weeks and initiated at Day 13 post-implant of CT26 cells); 6) delayed concurrent combination of merestinib (12 mg/kg once daily for 21 days orally) and anti-PD-L1 antibody (500 μg/animal once weekly via IP for 3 weeks) and initiated at Day 10 post-implant of CT26 cells.
# There are 15 animals per group. Five animals per group are taken down on Day 20 post-implant of CT26 cells for the harvesting of spleens and tumors for the interrogation of the effect of the combination of merestinib and anti-PD-L1 antibody combination on immune functions. Ten animals per group remain for the duration of the study unless, as pre-defined in the study protocol, the animal is to be sacrificed if the tumor volume exceeds 2500 mm^3 or is ulcerated. Tumor volumes and body weight are measured bi-weekly. Tumor volume is estimated by using the formula: v=l×w2×0.536 where l=larger of measured diameter and w=smaller of perpendicular diameter.
# The last dose of drug is received on Day 20, Day 27, Day 27, Day 27 and Day 31, respectively, for group 2, group 3, group 4, group 5 and group 6. On Day 64, about 1 month to 1.5 months after completing drug-dosing, animals that are still alive and with tumor response classified as PR (partial responder) or CR (complete responder) are re-challenged with a new implantation of CT26 tumor cells (1×10^6 cells in HBSS) subcutaneously into the contralateral side of the hind flank (left side) of the animal under anesthesia. The definition of PR and CR is in the statistical method section below. Three naïve animals (study protocol S035116) are used as control and are implanted with the same batch of CT26 tumor cells (1×10^6 cells in HBSS) subcutaneously into the left hind flank of the animal under anesthesia. Tumor growth is monitored and measured in the animals. […]
# [2] = animals of 10/group, tumor volume ≤25 mm^3
compound,measurement,setting,value
"Cc1ccc(C(=O)Nc2ccc(Oc3cc4cnn(C)c4cc3-c3cn[nH]c3)c(F)c2)c(=O)n1-c1ccc(F)cc1 [merestinib, N-(3-fluoro-4-(1-methyl-6-(1H-pyrazol-4-yl)-1H-indazol-5-yloxy)phenyl)-1-(4-fluorophenyl)-6-methyl-2-oxo-1,2-dihydropyridine-3-carboxamide]",IC50,CT26 cells,> 20 µM
same,tumor growth after cessation of dosing,"[1]; 12 mg/kg, after the 21 day dosing period, Days 33-40",grew exponentially
same,"% Response (% ΔT/C above baseline, % Regression below baseline)",[1]; Day 8,−65.5%
same,Mean Tumor Volume,[1]; Day 8,64.7
same,"% Response (% ΔT/C above baseline, % Regression below baseline)",[1]; Day 12,−29.4%
same,Mean Tumor Volume,[1]; Day 12,132.5
same,"% Response (% ΔT/C above baseline, % Regression below baseline)",[1]; Day 15,14.6%
same,Mean Tumor Volume,[1]; Day 15,206.6
same,"% Response (% ΔT/C above baseline, % Regression below baseline)",[1]; Day 19,53.7%
same,Mean Tumor Volume,[1]; Day 19,357.7
same,"% Response (% ΔT/C above baseline, % Regression below baseline)",[1]; Day 22,35.6%
same,Mean Tumor Volume,[1]; Day 22,491.5
same,"% Response (% ΔT/C above baseline, % Regression below baseline)",[1]; Day 25,31.3%
same,Mean Tumor Volume,[1]; Day 25,717.0
same,"% Response (% ΔT/C above baseline, % Regression below baseline)",[1]; Day 28,24.8%
same,Mean Tumor Volume,[1]; Day 28,845.3
same,"% Response (% ΔT/C above baseline, % Regression below baseline)",[1]; Day 33,27.1%
same,Mean Tumor Volume mm^3,[1]; Day 33,1609.0 mm^3
same,T/C %,[1]; Day 33,31.2%
same,anti-tumor effect as compared to vehicle control,[1]; Day 33 / end of dosing,significant anti-tumor effect
same,"Difference (Treatment 1 − Treatment 2), log scale tumor volume","[1]; Day 33, Treatment 1 = Vehicle control",0.529
same,Mean Tumor Volume,[1]; Day 33,1608.2
same,Day 33 Treatment Responders GD (Growth Delay),[1]; animals of 10/group,1
same,Day 33 Treatment Responders PD (Progressive Disease),[1]; animals of 10/group,9
same,Day 33 Treatment Responders PR (Partial Response),[1]; animals of 10/group,0
same,Day 64 Treatment Responders GD (Growth Delay),[1]; animals of 10/group,1
same,Day 64 Treatment Responders PD (Progressive Disease),[1]; animals of 10/group,9
same,Day 64 Treatment Responders PR (Partial Response),[1]; animals of 10/group,0
same,Day 33 Treatment Responders CR (Complete and durable Regression),[1]; [2],0
same,Day 64 Treatment Responders CR (Complete and durable Regression),[1]; [2],0
